Earlier results in PMC10116525 (ACS Omega, 2023).
Where two headings read alike, the source gives them in different places.

[1] = Lys^B29-lipidated insulin analogues

Substance | Duration of action [1] | Duration of action (precipitation in the subcutaneous space)
degludec | ≤ 42 h | 
detemir | up to 24 h | 
insulin glargine |  | up to 24 h
